Measured values: patent US20070129344A1, “Bicyclic 6-alkylidene-penem beta-lactamase inhibitors and beta-lactam antibiotic combination: a broad spectrum antibiotic” (priority 2005, published 2007)

Legend:
[1] = tested on: C. freundii GC 4171 TEM-1 + InducibleAmpC; assay: MIC microbroth dilution; β-lactamase class A, C; assay type: cell-based; details: C. freundii GC 4171; Cefepime + 4 ug/ml Compound 1
Description: (§1) The in vitro activities of the antibiotics were determined by the microbroth dilution method as recommended by the National Committee for Clinical Laboratory Standards (NCCLS). (NCCLS. 2000. Methods for Dilution Antimicrobial Susceptibility Tests for Bacteria That Grow Aerobically; Approved Standards: M7-A5, vol. 19. National Committee for Clinical Laboratory Standards, Villanova, Pa.). Mueller-Hinton II broth (MHBII)(BBL Cockeysville, Md.), was used for the testing procedure. […]. The plates were incubated for 18-22 hours at 35° C. in ambient air.

E. coli GC 1995 (TEM-10) = assay: MIC microbroth dilution; β-lactamase class A (ESBL); assay type: cell-based; details: Cefepime + 4 ug/ml Compound 1
Description: as §1

E. coli GC 6368 (SHV-7) = assay: as above; assay type: cell-based; details: Cefepime + 4 ug/ml Compound 1
Description: as §1

E. coli GC 2400 (TEM-43) = assay: as above; assay type: cell-based; details: Cefepime + 4 ug/ml Compound 1
Description: as §1

[2] = tested on: E. coli GC 2017 (TEM-10 + pl 6.3; 8.1); assay: as above; assay type: cell-based; details: Cefepime + 4 ug/ml Compound 1
Description: as §1

E. coli GC 1684 (TEM-10) = assay: as above; assay type: cell-based; details: Cefepime + 4 ug/ml Compound 1
Description: as §1

[3] = tested on: S. typhimurium GC 4197 CTX-M-5; assay: as above; assay type: cell-based; details: Cefepime + 4 ug/ml Compound 1
Description: as §1

E. coli GC 2300 (TEM-28) = assay: as above; assay type: cell-based; details: Cefepime + 4 ug/ml Compound 1
Description: as §1

[4] = tested on: E. coli GAR 5929 TEM, OXA, Act-1, CTX (By PCR only); assay: MIC microbroth dilution; β-lactamase class A, C, D; assay type: cell-based; details: Cefepime + 4 ug/ml Compound 1
Description: as §1

[5] = tested on: K. pn GC 6655 (TEM-1 + ACT-1); assay: MIC microbroth dilution; β-lactamase class A, C; assay type: cell-based, K. pneumoniae; details: Cefepime + 4 ug/ml Compound 1
Description: as §1

[6] = tested on: K. pn GC 3104 (MIR-1 + TEM-1); assay: MIC microbroth dilution; β-lactamase class A, C; assay type: cell-based, K. pneumoniae; details: Cefepime + 4 ug/ml Compound 1
Description: as §1

[7] = tested on: K. pn GC 2391 (pl 5.4; 5.6; 7.6; 8.7 B-lactamases); assay: MIC microbroth dilution; β-lactamase class A, A (ESBL), C; assay type: cell-based, K. pneumoniae; details: Cefepime + 4 ug/ml Compound 1
Description: as §1

E. coli GC 2920 (IRT-2) = assay: MIC microbroth dilution; β-lactamase class A (IRT); assay type: cell-based; details: Cefepime + 4 ug/ml Compound 1
Description: as §1

[8] = tested on: A. baumannii GC 7687 AmpC; assay: MIC microbroth dilution; β-lactamase class C; assay type: cell-based; details: Cefepime + 4 ug/ml Compound 1
Description: as §1

E. coli GC 2894 (AmpC) = assay: MIC microbroth dilution; β-lactamase class C; assay type: cell-based; details: Cefepime + 4 ug/ml Compound 1
Description: as §1

[9] = tested on: E. cloacae GC 1712 AmpC-inducible; assay: MIC microbroth dilution; β-lactamase class C; assay type: cell-based; details: Cefepime + 4 ug/ml Compound 1
Description: as §1

[10] = tested on: E. aerogenes 1697-MP GC 7845 AmpC; assay: MIC microbroth dilution; β-lactamase class C; assay type: cell-based; details: E. aerogenes GC 7845; Cefepime + 4 ug/ml Compound 1
Description: as §1

[11] = tested on: E. cloacae PT 1494 Inducible AmpC; assay: MIC microbroth dilution; β-lactamase class C; assay type: cell-based; details: Cefepime + 4 ug/ml Compound 1
Description: as §1

[12] = tested on: P. aeruginosa GC 3153 Inducible AmpC; assay: MIC microbroth dilution; β-lactamase class C; assay type: cell-based; details: Cefepime + 4 ug/ml Compound 1
Description: as §1

[13] = tested on: E. cloacae GC 1477 (AmpC); assay: MIC microbroth dilution; β-lactamase class C; assay type: cell-based; details: Cefepime + 4 ug/ml Compound 1
Description: as §1

[14] = tested on: P. aeruginosa GC 1763 AmpC-inducible; assay: MIC microbroth dilution; β-lactamase class C; assay type: cell-based; details: Cefepime + 4 ug/ml Compound 1
Description: as §1

[15] = tested on: S. marcescens GC 4145 Inducible AmpC; assay: MIC microbroth dilution; β-lactamase class C; assay type: cell-based; details: Cefepime + 4 ug/ml Compound 1
Description: as §1

E. coli GC 6539 CMY-2 = assay: MIC microbroth dilution; β-lactamase class C; assay type: cell-based; details: Cefepime + 4 ug/ml Compound 1
Description: as §1

[16] = tested on: K. pneumoniae GC 7824 Fox 5; assay: MIC microbroth dilution; β-lactamase class C; assay type: cell-based; details: Cefepime + 4 ug/ml Compound 1
Description: as §1

[17] = tested on: C. freundii GC 4164 Inducible AmpC; assay: MIC microbroth dilution; β-lactamase class C; assay type: cell-based; details: Cefepime + 4 ug/ml Compound 1
Description: as §1

E. cloacae GC 1475 (P99) = assay: MIC microbroth dilution; β-lactamase class C; assay type: cell-based; details: Cefepime + 4 ug/ml Compound 1
Description: as §1

[18] = tested on: K. pneumoniae GC 7822 Act 1; assay: MIC microbroth dilution; β-lactamase class C; assay type: cell-based; details: Cefepime + 4 ug/ml Compound 1
Description: as §1

[19] = tested on: S. marcescens GC 4132 (AmpC); assay: MIC microbroth dilution; β-lactamase class C; assay type: cell-based; details: Cefepime + 4 ug/ml Compound 1
Description: as §1

[20] = tested on: K. pneumoniae GC 7820 Act 1; assay: MIC microbroth dilution; β-lactamase class C; assay type: cell-based; details: K. pneumoniae GC 7820; Cefepime + 4 ug/ml Compound 1
Description: as §1

[21] = tested on: E. coli GC 4971 OXA-1, TEM-1; assay: MIC microbroth dilution; β-lactamase class A, D; assay type: cell-based; details: Cefepime + 4 ug/ml Compound 1
Description: as §1

[22] = tested on: E. cloacae GC 7052 SHV-5, Amp C inducable; assay: MIC microbroth dilution; β-lactamase class A (ESBL), C; assay type: cell-based; details: Cefepime + 4 ug/ml Compound 1
Description: as §1

[23] = tested on: E. aerogenes GC 7036 TEM-24, Amp C inducable; assay: as above; assay type: cell-based; details: Cefepime + 4 ug/ml Compound 1
Description: as §1

[24] = tested on: E. cloacae GC 7065 TEM-26, SHV-12 Amp C inducable; assay: as above; assay type: cell-based; details: Cefepime + 4 ug/ml Compound 1
Description: as §1

[25] = tested on: M. morganii GC 1617 TEM-10 + inducible AmpC; assay: as above; assay type: cell-based; details: Cefepime + 4 ug/ml Compound 1
Description: as §1

[26] = tested on: E. aerogenes GC 7039 TEM-4, Amp C inducable; assay: as above; assay type: cell-based; details: Cefepime + 4 ug/ml Compound 1
Description: as §1

Compound: O=C([O-])C1=CS[C@@H]2/C(=C\c3cn4c(n3)CCC4)C(=O)N12.[Na+] [Compound 1, (5R), (6Z)-6-(6,7-Dihydro-5H-pyrrolo[1,2-a]imidazol-2-ylmethylene)-7-oxo-4-thia-1-aza-bicyclo[3.2.0]hept-2-ene-2-carboxylic Acid, Sodium Salt]
- MIC [1]: 0.06 µg/mL
- MIC (E. coli GC 1995 (TEM-10)): 0.06 µg/mL
- MIC (E. coli GC 6368 (SHV-7)): 0.03 µg/mL
- MIC (E. coli GC 2400 (TEM-43)): 0.50 µg/mL
- MIC [2]: 0.12 µg/mL
- MIC (E. coli GC 1684 (TEM-10)): 0.06 µg/mL
- MIC [3]: 1 µg/mL
- MIC (E. coli GC 2300 (TEM-28)): 0.25 µg/mL
- MIC [4]: 0.06 µg/mL
- MIC [5]: 0.12 µg/mL
- MIC [6]: 0.50 µg/mL
- MIC [7]: 0.50 µg/mL
- MIC (E. coli GC 2920 (IRT-2)): 0.06 µg/mL
- MIC [8]: 16 µg/mL
- MIC (E. coli GC 2894 (AmpC)): 0.06 µg/mL
- MIC [9]: 0.12 µg/mL
- MIC [10]: 0.06 µg/mL
- MIC [11]: 0.06 µg/mL
- MIC [12]: 8 µg/mL
- MIC [13]: 0.25 µg/mL
- MIC [14]: 1 µg/mL
- MIC [15]: 0.12 µg/mL
- MIC (E. coli GC 6539 CMY-2): 0.06 µg/mL
- MIC [16]: 0.12 µg/mL
- MIC [17]: 0.06 µg/mL
- MIC (E. cloacae GC 1475 (P99)): 0.12 µg/mL
- MIC [18]: 0.50 µg/mL
- MIC [19]: 0.12 µg/mL
- MIC [20]: 0.25 µg/mL
- MIC [21]: 0.12 µg/mL
- MIC [22]: 1 µg/mL
- MIC [23]: 0.06 µg/mL
- MIC [24]: 0.06 µg/mL
- MIC [25]: 0.12 µg/mL
- MIC [26]: 0.03 µg/mL
